From patent US12195482B1 (Arcus Biosciences, Inc., priority 2022, dated 2025)

Legend:
p-AXL = molecular target: T1, p-AXL (Homo sapiens, UniProt P30530); experiment: Axl phosphorylation inhibition ELISA in HEK293T cells transfected with NanoLuc-tagged AXL; assay type: cell-based; details: 1 h compound incubation, media (OptiMEM)
T1 construct: expressed in transfected cells; host or cells: HEK293T
T1 sequence (P30530 26-894): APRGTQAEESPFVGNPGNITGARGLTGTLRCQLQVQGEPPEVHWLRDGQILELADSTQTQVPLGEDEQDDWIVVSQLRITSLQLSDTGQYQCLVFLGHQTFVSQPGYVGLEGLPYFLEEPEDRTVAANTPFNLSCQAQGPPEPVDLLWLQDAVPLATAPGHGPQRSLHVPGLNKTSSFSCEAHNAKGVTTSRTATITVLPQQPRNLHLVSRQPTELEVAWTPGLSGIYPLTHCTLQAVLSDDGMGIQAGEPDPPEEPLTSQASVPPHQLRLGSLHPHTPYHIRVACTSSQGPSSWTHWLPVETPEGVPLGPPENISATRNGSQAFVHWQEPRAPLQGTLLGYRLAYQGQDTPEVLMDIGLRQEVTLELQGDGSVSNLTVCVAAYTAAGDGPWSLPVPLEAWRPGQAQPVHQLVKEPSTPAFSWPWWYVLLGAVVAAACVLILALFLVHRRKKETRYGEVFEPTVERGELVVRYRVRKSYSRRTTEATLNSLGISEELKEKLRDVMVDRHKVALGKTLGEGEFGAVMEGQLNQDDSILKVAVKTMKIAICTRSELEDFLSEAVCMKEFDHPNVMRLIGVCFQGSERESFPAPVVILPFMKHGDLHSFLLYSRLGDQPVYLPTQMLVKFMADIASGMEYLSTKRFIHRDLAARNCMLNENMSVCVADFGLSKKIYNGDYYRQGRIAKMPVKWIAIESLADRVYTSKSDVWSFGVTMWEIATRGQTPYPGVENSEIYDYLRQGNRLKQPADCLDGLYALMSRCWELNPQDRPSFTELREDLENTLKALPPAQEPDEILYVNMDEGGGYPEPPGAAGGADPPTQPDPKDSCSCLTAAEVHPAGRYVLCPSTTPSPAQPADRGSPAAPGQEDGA
How it was run: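 Phospho-AXL detected by luminescence of NanoLuc tag after capture of cell lysate on biotinylated anti-phospho-tyrosine mAb plates (2 h). Lysates came from transiently transfected HEK293T cells treated 1 h at 37° C with serial 2-fold dilutions (22 points). IC50 by standard 4-parameter logistic fitting.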

Axl = molecular target: T2, Axl (Homo sapiens, UniProt P30530); experiment: Biochemical potency, HTRF KinEASE-TK kinase assay; parameters: purchased Invitrogen; details: 5 nM AXL, 700 μM ATP
T2 sequence (P30530 26-894): T1 sequence (P30530 26-894)
How it was run: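 HTRF 665/620 readout after a 2 h RT kinase reaction (final 700 μM ATP, 800 nM biotinylated TK substrate, 1% DMSO, HEPES pH 7.4 buffer) gave percent activity. Final enzyme was 5 nM for AXL, 1 nM for TYRO3 or MER, each preincubated 1 h with compound.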

Compound | IC50 (p-AXL) | IC50 (Axl)
Cc1cnc(-c2ccc(-c3n[nH]c4ncc(-c5ccc6c(c5)CC[C@@](C)(N5CCC[C@H]5C)CC6)cc34)nc2)c(C)n1 [Example 60, 3,5-Dimethyl-2-(6-{5-[(7S)-7-methyl-7-[(2R)-2-methylpyrrolidin-1-yl]-6,7,8,9-tetrahydro-5H-benzo[7]annulen-2-yl]-1H-pyrazolo[3,4-b]pyridin-3-yl}pyridin-3-yl)pyrazine] | 100 to 1000 nM | < 100 nM
Cc1ccc(C#N)c(-c2ccc(-c3n[nH]c4ncc(-c5ccc6c(c5)CC[C@@](C)(N5CCC[C@H]5C)CC6)cc34)cc2)n1 [Example 71, 6-Methyl-2-(4-{5-[(7S)-7-methyl-7-[(2R)-2-methylpyrrolidin-1-yl]-6,7,8,9-tetrahydro-5H-benzo[7]annulen-2-yl]-1H-pyrazolo[3,4-b]pyridin-3-yl}phenyl)pyridine-3-carbonitrile] | < 100 nM | < 100 nM
Cc1ccc(C)c(-c2ccc(-c3n[nH]c4ncc(-c5ccc6c(c5)CC[C@@H](N[C@H]5CCCOC5)CC6)cc34)cc2)n1 [Example 140, (3S)—N-[(7S)-2-{3-[4-(3,6-Dimethylpyridin-2-yl)phenyl]-1H-pyrazolo[3,4-b]pyridin-5-yl}-6,7,8,9-tetrahydro-5H-benzo[7]annulen-7-yl]oxan-3-amine] | < 100 nM | < 100 nM
Cc1cccnc1-c1ccc(-c2c[nH]c3nnc(-c4ccc5c(c4)CC[C@@](C)(N4CCC[C@H]4C)CC5)cc23)cc1 [Example 18, 3-[(7S)-7-Methyl-7-[(2R)-2-methylpyrrolidin-1-yl]-5,6,8,9-tetrahydrobenzo[7]annulen-3-yl]-5-[4-(3-methylpyridin-2-yl)phenyl]-7H-pyrrolo[2,3-c]pyridazine] | < 100 nM | < 100 nM
Cc1cnc(C)c(-c2ccc(-c3c[nH]c4ncc(-c5ccc6c(c5)CC[C@@](C)(N5CCC[C@H]5C)CC6)cc34)nc2)n1 [Example 68, 2,5-Dimethyl-3-(6-{5-[(7S)-7-methyl-7-[(2R)-2-methylpyrrolidin-1-yl]-6,7,8,9-tetrahydro-5H-benzo[7]annulen-2-yl]-1H-pyrrolo[2,3-b]pyridin-3-yl}pyridin-3-yl)pyrazine] | < 100 nM | < 100 nM
Cc1cccnc1-c1cnc(-c2c[nH]c3ncc(-c4ccc5c(c4)CC[C@@H](N4C6COCC4C6)CC5)cc23)nc1 [Example 37, 6-[(7S)-3-[3-[5-(3-Methylpyridin-2-yl)pyrimidin-2-yl]-1H-pyrrolo[2,3-b]pyridin-5-yl]-6,7,8,9-tetrahydro-5H-benzo[7]annulen-7-yl]-3-oxa-6-azabicyclo[3.1.1]heptane] | < 100 nM | < 100 nM
Cc1ccc(C)c(-c2ccc(-c3c[nH]c4ncc(-c5ccc6c(c5)CC[C@@H](N5C7COC[C@H]5C7)CC6)cc34)c(F)c2)n1 [Example 144, (1R)-6-[(7S)-2-{3-[4-(3,6-Dimethylpyridin-2-yl)-2-fluorophenyl]-1H-pyrrolo[2,3-b]pyridin-5-yl}-6,7,8,9-tetrahydro-5H-benzo[7]annulen-7-yl]-3-oxa-6-azabicyclo[3.1.1]heptane] | < 100 nM | < 100 nM
c1cc2c(c(-c3ccc(-c4n[nH]c5ncc(-c6ccc7c(c6)CC[C@@H](N6C8COCC6C8)CC7)cc45)cc3)n1)NCCO2 [Example 150, 6-[(7S)-2-[3-(4-{2H,3H,4H-Pyrido[4,3-b][1,4]oxazin-5-yl}phenyl)-1H-pyrazolo[3,4-b]pyridin-5-yl]-6,7,8,9-tetrahydro-5H-benzo[7]annulen-7-yl]-3-oxa-6-azabicyclo[3.1.1]heptane] | 100 to 1000 nM | < 100 nM
Cc1cnc(C)c(-c2ccc(-c3n[nH]c4ncc(-c5ccc6c(c5)CC[C@@H](N5C7COCC5C7)CC6)cc34)cc2)n1 [Example 65, 6-[(7S)-2-{3-[4-(3,6-Dimethylpyrazin-2-yl)phenyl]-1H-pyrazolo[3,4-b]pyridin-5-yl}-6,7,8,9-tetrahydro-5H-benzo[7]annulen-7-yl]-3-oxa-6-azabicyclo[3.1.1]heptane] | < 100 nM | < 100 nM
C[C@@H]1CCCN1[C@@]1(C)CCc2ccc(-c3cnc4[nH]nc(-c5ccc(-c6ncccc6C#N)cc5)c4c3)cc2CC1 [Example 66, 2-(4-{5-[(7S)-7-Methyl-7-[(2R)-2-methylpyrrolidin-1-yl]-6,7,8,9-tetrahydro-5H-benzo[7]annulen-2-yl]-1H-pyrazolo[3,4-b]pyridin-3-yl}phenyl)pyridine-3-carbonitrile] | < 100 nM | < 100 nM
c1cnc(-c2ccc(-c3n[nH]c4ncc(-c5ccc6c(c5)CC[C@@H](N5C7COCC5C7)CC6)cc34)cc2)c(C2CCOCC2)c1 [Example 149, 6-[(7S)-2-(3-{4-[3-(Oxan-4-yl)pyridin-2-yl]phenyl}-1H-pyrazolo[3,4-b]pyridin-5-yl)-6,7,8,9-tetrahydro-5H-benzo[7]annulen-7-yl]-3-oxa-6-azabicyclo[3.1.1]heptane] | < 100 nM | < 100 nM
Cc1cnc(C)c(-c2ccc(-c3n[nH]c4ncc(-c5ccc6c(c5)CC[C@@](C)(N5CCC[C@H]5C)CC6)cc34)cc2)n1 [Example 64, 2,5-Dimethyl-3-(4-{5-[(7S)-7-methyl-7-[(2R)-2-methylpyrrolidin-1-yl]-6,7,8,9-tetrahydro-5H-benzo[7]annulen-2-yl]-1H-pyrazolo[3,4-b]pyridin-3-yl}phenyl)pyrazine] | < 100 nM | < 100 nM
